For 53 compounds, EC50 results are on record in patent publication US11618749B2, “Compounds and compositions for treating conditions associated with STING activity” (IFM Due, Inc., priority 2018, dated 2023).

This assay deals with T1, hSTING (Homo sapiens, UniProt Q86WV6, G230A/H232R/R293Q/R71H).
T1 construct: host or cells: THP1-Dual KO-IFNAR2 cells
T1 sequence (Q86WV6 whole entry R71H/G230A/H232R/R293Q): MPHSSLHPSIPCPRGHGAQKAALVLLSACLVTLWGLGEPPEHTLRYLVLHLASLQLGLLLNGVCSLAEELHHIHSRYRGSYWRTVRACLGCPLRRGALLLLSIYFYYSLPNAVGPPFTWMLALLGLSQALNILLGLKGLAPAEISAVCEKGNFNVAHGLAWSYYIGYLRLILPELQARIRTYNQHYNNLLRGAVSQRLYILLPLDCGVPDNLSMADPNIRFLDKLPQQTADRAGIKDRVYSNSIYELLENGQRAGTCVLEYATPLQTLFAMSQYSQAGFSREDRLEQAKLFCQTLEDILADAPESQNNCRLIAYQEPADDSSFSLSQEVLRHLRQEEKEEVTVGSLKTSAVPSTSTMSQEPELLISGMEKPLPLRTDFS
Description: STING reporter assay (luciferase reporter) in THP1-Dual KO-IFNAR2 cells activated with 2′3′cGAMP. The note with it: 15 μM 2′3′cGAMP, 24 h, luciferase reporter activity. The assay is classed as cell-based. The method, then: STING pathway activation by the compounds described herein is measured using THP1-Dual™ cells (KO-IFNAR2).
THP1-Dual™ KO-IFNAR2 Cells (obtained from invivogen) are maintained in RPMI, 10% FCS, 5 ml P/S, 2 mM L-glut, 10 mM Hepes, and 1 mM sodium pyruvate. Compounds are spotted in empty 384 well tissue culture plates (Greiner 781182) by Echo for a final concentration of […]. Cells are plated into the TC plates at 40 μL per well, 2×10E6 cells/mL. For activation with STING ligand, 2′3′cGAMP (MW 718.38, obtained from Invivogen), is prepared in Optimem media.
The following solutions are prepared for each 1×384 plate: • Solution A: 2 mL Optimem with one of the following stimuli: • 60 uL of 10 mM 2′3′cGAMP→150 μM stock • Solution B: 2 mL Optimem with 60 μL Lipofectamine 2000→Incubate 5 min at RT
2 mL of solution A and 2 ml Solution B is mixed and incubated for 20 min at room temperature (RT). 20 uL of transfection solution (A+B) is added on top of the plated cells, with a final 2′3′cGAMP concentration of 15 μM. The plates are then centrifuged immediately at 340 g for 1 minute, after which they are incubated at 37° C., 5% CO2, >98% humidity for 24 h. Luciferase reporter activity is then measured. EC50 values were calculated by using standard methods known in the art.
Luciferase Reporter Assay:
10 μL of supernatant from the assay is transferred to white 384-plate with flat bottom and squared wells. one pouch of QUANTI-Luc™ Plus is dissolved in 25 mL of water. 100 μL of QLC Stabilizer per 25 mL of QUANTI-Luc™ Plus solution was added. 50 μL of QUANTI-Luc™ Plus/QLC solution per well is then added. Luminescence is measured on a Platereader (e.g., Spectramax I3X (Molecular Devices GF3637001)).
Luciferase reporter activity is then measured. EC50 values are calculated by using standard methods known in the art.
A general note: In a reporter assay the amount or activity of a reporter protein is the signal.
By EC50 is commonly meant the concentration that produces a half-maximal response. The low end stands for an effect from little substance, the high end for a need for much substance. Turning to `O=C(Nc1c[nH]c2ncccc12)NC1CCCC(c2ccccc2)C1` (centres unmarked) [Compound 304], the EC50 fell in the range of 5 to 100 µM. In turn, `CCc1ccc(NC(=O)Nc2c[nH]c3ncncc23)cc1` [Compound 183b] had an EC50 of 5 to 100 µM. As for `O=C(Nc1ccc(C2CCCCC2)nc1)Nc1c[nH]c2ncccc12` [Compound 263], the figure is 0.2 to 1 µM; as for `O=C(Nc1ccc(C2CCCCC2)cn1)Nc1c[nH]c2ncccc12` [Compound 264], 0.2 to 1 µM; as for `CCc1ccc(NC(=O)Nc2c[nH]c3ncccc23)nc1` [Compound 169], 5 to 100 µM. Compound `O=C(Nc1ccc(C(F)(F)F)cc1)Nc1c[nH]c2ccncc12` [Compound 145] came in with a half-maximal effective concentration (EC50) of 0.2 to 1 µM. `O=C(Nc1c[nH]c2ncccc12)NC1CCCc2ccccc21` (centres unmarked) [Compound 135] gave an EC50 of 5 to 100 µM. As to `O=C(Nc1ccc(C(F)(F)F)cn1)Nc1c[nH]c2cccnc12` [Compound 152], the EC50 lay within 5 to 100 µM. Take `CCCCC1CCC(N/C(=N\C#N)Nc2c[nH]c3cccnc23)CC1` (centres unmarked) [Compound 336]: the 50% effective concentration (EC50) is 0.2 to 1 µM. As for `CCCCc1ccc(NC(=O)Nc2c[nH]c3ncc(F)cc23)cc1` [Compound 275], the figure is 0.04 to 0.2 µM; as for `CC(C)n1cc(-c2ccnc3[nH]cc(NC(=O)Nc4ccc(C(F)(F)F)cc4)c23)cn1` [Compound 186], 5 to 100 µM.

Consider `CCc1ccc(NC(=O)Nc2c[nH]c3ncc(F)cc23)cc1` [Compound 174], for which the EC50 was 0.04 to 0.2 µM. Compound `CCCCC1CCN(C(=O)Nc2c[nH]c3cccnc23)CC1` [Compound 140] returned a concentration giving a half-maximal response (EC50) of 1 to 5 µM. Compound `O=C(Nc1c[nH]c2cccnc12)NC1CCC2(CCC2)CC1` [Compound 142] returned an EC50 of 1 to 5 µM.

`O=C(Nc1ccc(C(F)(F)F)cc1)Nc1c[nH]c2ncc(-c3ccc(N4CCOCC4)nc3)cc12` [Compound 188]: the EC50 was in the range of 5 to 100 µM. Compound `CC(NC(=O)Nc1c[nH]c2ncc(F)cc12)c1ccc2c(c1)OCCO2` (centres unmarked) [Compound 279] had an EC50 of 5 to 100 µM. For the compound `CCc1cnc2[nH]cc(NC(=O)Nc3ccc(C(F)(F)F)cc3)c2c1` [Compound 268, 3-[5-ethyl-1H-pyrrolo[2,3-b]pyridin-3-yl]-1-[4-(trifluoromethyl)phenyl] urea], the concentration for a half-maximal effect (EC50) fell in the range of 0.2 to 1 µM. Compound `O=C(Nc1ccc(C(F)(F)F)cc1)Nc1c[nH]c2nccc(C3=CCOCC3)c12` [Compound 203] gave an EC50 of 5 to 100 µM. The value for `O=C(Nc1c[nH]c2ccncc12)NC1CCC(c2ccccc2)CC1` (centres unmarked) [Compound 321] was 5 to 100 µM; that for `CC(C)n1cc(-c2cnc3[nH]cc(NC(=O)Nc4ccc(C(F)(F)F)cc4)c3c2)cn1` [Compound 193] was 0.2 to 1 µM. In turn, `O=C(Nc1ccc2cnccc2c1)Nc1c[nH]c2ncc(F)cc12` [Compound 288] returned an EC50 of 5 to 100 µM. Turning to `O=C(Nc1ccc(C(F)(F)F)cc1)Nc1c[nH]c2cc(F)cnc12` [Compound 330], the EC50 lay within 1 to 5 µM. In the case of `O=C(Nc1cnc(-c2ccccc2)s1)Nc1c[nH]c2ncc(F)cc12` [Compound 295], the EC50 is 0.2 to 1 µM. As to `O=C(Nc1c[nH]c2ncccc12)NC1CCc2ccccc2C1` (centres unmarked) [Compound 136], the EC50 fell in the range of 5 to 100 µM. On to `CN1CC=C(c2cnc3[nH]cc(NC(=O)Nc4ccc(C(F)(F)F)cc4)c3c2)CC1` [Compound 213], for which the EC50 was 5 to 100 µM. As for `O=C(Nc1ccc(C(F)(F)F)cc1)Nc1c[nH]c2ncc(-c3ccc(OCC4CC4)nc3)cc12` [Compound 211], the figure is 0.2 to 1 µM. The compound `O=C(Nc1ccc(C(F)(F)F)cc1)Nc1c[nH]c2c(F)cncc12` [Compound 165] showed a 50% effective concentration (EC50) of 0.2 to 1 µM. The compound `O=C(Nc1ccc(C(F)(F)F)cc1)Nc1c[nH]c2ncc(Br)cc12` [Compound 147] came in with an EC50 of 0.04 to 0.2 µM. As for `O=C(Nc1cc(F)cc(F)c1)Nc1c[nH]c2ncccc12` [Compound 299], the figure is 5 to 100 µM; as for `CCCCc1ccc(N(CC)C(=O)Nc2c[nH]c3ncc(F)cc23)cc1` [Compound 245], 5 to 100 µM. On to `O=C(Nc1c[nH]c2ncc(F)cc12)NC1CCC(C(F)(F)F)CC1` (centres unmarked) [Compound 270], for which the concentration giving a half-maximal response (EC50) fell in the range of 5 to 100 µM. With `O=C(Nc1ccc(C(F)(F)F)nc1)Nc1c[nH]c2cccnc12` [Compound 156], the EC50 was in the range of 5 to 100 µM. The value for `CCCCC1CCC(NC(=O)Nc2c[nH]c3ccncc23)CC1` (centres unmarked) [Compound 317] was 0.2 to 1 µM. As for `O=C(Nc1c[nH]c2ccc(-c3ccccc3)nc12)NC1CCC(C(F)(F)F)CC1` (centres unmarked) [Compound 335], the EC50 was 1 to 5 µM. In the case of `O=C(Nc1nc2ccccc2s1)Nc1c[nH]c2ncc(F)cc12` [Compound 292], the EC50 was in the range of 0.2 to 1 µM. The value for `O=C(Nc1ccc(C(F)(F)F)cc1)Nc1c[nH]c2ncc(-c3ccccc3)cc12` [Compound 143, 1-(5-phenyl-1H-pyrrolo[2,3-b]pyridin-3-yl)-3-(4-(trifluoromethyl)phenyl)urea] was 1 to 5 µM; that for `CC(c1ccc(-c2cnc3[nH]cc(NC(=O)Nc4ccc(C(F)(F)F)cc4)c3c2)cc1)N(C)C` (centres unmarked) [Compound 196] was 5 to 100 µM. In turn, `Cc1ccc2[nH]cc(NC(=O)Nc3ccc(C(F)(F)F)cc3)c2n1` [Compound 329] returned an EC50 of 0.2 to 1 µM. `O=C(Nc1ccc(C(F)(F)F)nc1)Nc1c[nH]c2ccncc12` [Compound 318] returned a concentration giving a half-maximal response (EC50) of 5 to 100 µM. `O=C(Nc1c[nH]c2ncccc12)N1CC(c2ccccc2)C1` [Compound 289]: the EC50 was in the range of 5 to 100 µM.

Consider `C#Cc1ccc2[nH]cc(NC(=O)Nc3ccc(C(F)(F)F)cc3)c2n1` [Compound 324, 1-(5-ethynyl-1H-pyrrolo[3,2-b]pyridin-3-yl)-3-(4-(trifluoromethyl)phenyl)urea], for which the EC50 was in the range of 5 to 100 µM. Consider `O=C(Nc1c[nH]c2ncc(F)cc12)NC1CCC(Cc2ccccc2)CC1` (centres unmarked) [Compound 248], for which the concentration for a half-maximal effect (EC50) lay in the range of 0.2 to 1 µM. Compound `CN(C)S(=O)(=O)c1cccc(-c2cnc3[nH]cc(NC(=O)Nc4ccc(C(F)(F)F)cc4)c3c2)c1` [Compound 204] had a 50% effective concentration (EC50) of 1 to 5 µM. As for `CCCCc1ccc(NC(=O)Nc2c[nH]c3ncc(F)cc23)nc1` [Compound 259], the figure is 0.2 to 1 µM.

Take `O=C(Nc1ccc(C2CCCCC2)nc1)Nc1c[nH]c2cccnc12` [Compound 331]: the EC50 was 1 to 5 µM. As for `O=C(Nc1c[nH]c2ccncc12)NC1CC2CCC(C2)C1` (centres unmarked) [Compound 161], the figure is 5 to 100 µM; as for `O=C(Nc1ccc(C(F)(F)F)cc1)Nc1c[nH]c2ccc(-c3ccccc3)nc12` [Compound 328, 1-(5-phenyl-1H-pyrrolo[3,2-b]pyridin-3-yl)-3-(4-(trifluoromethyl)phenyl)urea], 5 to 100 µM.

`O=C(Nc1ccc(C(F)(F)F)cc1)Nc1c[nH]c2cnc(-c3ccccc3)nc12` [Compound 180] had an EC50 of 5 to 100 µM. As for `C#Cc1ccc(NC(=O)Nc2c[nH]c3ncc(F)cc23)cc1` [Compound 291], the EC50 was in the range of 0.04 to 0.2 µM. Turning to `O=C(Nc1c[nH]c2cccnc12)NC1CCC(C(F)(F)F)CC1` (centres unmarked) [Compound 141], the EC50 is 5 to 100 µM.

`O=C(Nc1ccc(C2CCCCC2)nc1)Nc1c[nH]c2ncc(F)cc12` [Compound 272] showed an EC50 of 0.04 to 0.2 µM. As for `Cc1nc2cc(NC(=O)Nc3c[nH]c4ncc(F)cc34)ccc2s1` [Compound 286], the figure is 1 to 5 µM; as for `O=C(Nc1cccc(C(F)(F)F)c1)Nc1c[nH]c2ncccc12` [Compound 150], 1 to 5 µM.
